Test results: patent publication US10875860B2, “Azaindenoisoquinoline compounds and uses thereof” (Purdue Research Foundation, priority 2016, dated 2020)
Where two headings read alike, the source gives them in different places.

Assays:
[1] = biological target: T1, Top1 (Homo sapiens, UniProt P11387); experiment: Top1-mediated DNA cleavage assay; type: biochemical; set-up: Top1 inhibitory activity level / Top1 inhibitory activity score: key to the marks not given beside the values; settings: for Enzyme Inhibitory Activity Top1: DNA cleavage relative to 1 μM MJ-III-65 (19) and 1 μM camptothecin (18); for Top1 inhibitory activity level: series 1
T1 sequence (P11387 1-765): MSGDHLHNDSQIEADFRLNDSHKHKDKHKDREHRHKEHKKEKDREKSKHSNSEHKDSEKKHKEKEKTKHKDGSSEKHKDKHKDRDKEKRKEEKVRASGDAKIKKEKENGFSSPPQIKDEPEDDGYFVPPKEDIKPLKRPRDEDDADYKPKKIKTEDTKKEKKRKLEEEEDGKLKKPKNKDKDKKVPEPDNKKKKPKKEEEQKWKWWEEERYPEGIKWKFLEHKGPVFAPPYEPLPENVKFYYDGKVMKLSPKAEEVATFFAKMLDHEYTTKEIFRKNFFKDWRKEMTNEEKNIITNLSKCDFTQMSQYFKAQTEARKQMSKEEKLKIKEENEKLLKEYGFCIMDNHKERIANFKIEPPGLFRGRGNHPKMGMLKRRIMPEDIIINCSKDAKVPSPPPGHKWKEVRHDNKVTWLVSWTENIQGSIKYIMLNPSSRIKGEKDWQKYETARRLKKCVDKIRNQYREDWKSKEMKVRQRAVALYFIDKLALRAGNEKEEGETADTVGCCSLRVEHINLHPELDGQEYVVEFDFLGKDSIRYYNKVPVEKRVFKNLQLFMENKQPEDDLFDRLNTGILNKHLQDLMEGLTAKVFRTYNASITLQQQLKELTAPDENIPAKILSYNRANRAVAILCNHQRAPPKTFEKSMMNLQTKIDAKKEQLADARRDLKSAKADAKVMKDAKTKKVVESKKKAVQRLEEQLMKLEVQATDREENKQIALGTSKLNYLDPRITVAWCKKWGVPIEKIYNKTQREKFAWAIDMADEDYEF

[2] = biological target: Tdp1 (Homo sapiens, UniProt Q9NUW8); experiment: Recombinant Tdp1 assay; type: biochemical
Tdp1, sequence (Q9NUW8 whole entry): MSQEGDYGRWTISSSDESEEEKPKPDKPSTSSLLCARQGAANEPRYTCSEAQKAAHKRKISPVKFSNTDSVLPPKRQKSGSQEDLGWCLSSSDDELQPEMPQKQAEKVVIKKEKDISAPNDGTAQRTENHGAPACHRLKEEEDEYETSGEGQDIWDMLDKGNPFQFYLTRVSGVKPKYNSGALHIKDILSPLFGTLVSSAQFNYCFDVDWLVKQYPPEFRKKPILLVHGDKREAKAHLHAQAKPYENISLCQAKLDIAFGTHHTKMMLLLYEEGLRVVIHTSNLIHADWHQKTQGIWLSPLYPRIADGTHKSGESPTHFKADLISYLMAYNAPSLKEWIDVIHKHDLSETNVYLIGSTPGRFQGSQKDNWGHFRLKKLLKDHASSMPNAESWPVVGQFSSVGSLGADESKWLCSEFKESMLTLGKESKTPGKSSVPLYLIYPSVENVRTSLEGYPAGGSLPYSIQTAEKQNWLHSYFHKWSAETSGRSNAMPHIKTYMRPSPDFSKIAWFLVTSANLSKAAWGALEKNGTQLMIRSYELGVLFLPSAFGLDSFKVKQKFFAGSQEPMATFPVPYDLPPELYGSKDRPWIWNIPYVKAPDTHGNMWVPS

[3] = biological target: T2, recombinant human TDP2 (Homo sapiens, UniProt O95551); experiment: Recombinant Tdp2 assay; type: biochemical
T2 sequence (O95551 1-362): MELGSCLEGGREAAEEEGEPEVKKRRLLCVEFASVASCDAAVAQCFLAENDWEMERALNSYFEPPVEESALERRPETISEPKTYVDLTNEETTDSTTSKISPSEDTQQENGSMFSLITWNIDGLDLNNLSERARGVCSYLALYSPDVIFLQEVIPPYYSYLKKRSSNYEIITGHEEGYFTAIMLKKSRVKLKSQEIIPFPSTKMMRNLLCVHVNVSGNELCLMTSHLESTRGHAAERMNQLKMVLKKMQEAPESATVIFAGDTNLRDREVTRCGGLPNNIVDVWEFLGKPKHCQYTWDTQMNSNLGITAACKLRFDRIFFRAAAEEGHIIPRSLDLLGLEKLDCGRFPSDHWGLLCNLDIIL
Protocol: TDP2 reactions were carried out as described previously with the following modifications. […] Reactions were terminated and treated similarly to whole-cell extract and recombinant Tdp1 reactions (see previous paragraph).

[4] = test system: HCT-116; experiment: NCI-60 cytotoxicity, HCT-116; type: cell-based; settings: Homo sapiens, single determinations, Table 2, read-out: Cytotoxicity (GI50) Colon HCT-116
[5] = test system: DU-145; experiment: NCI-60 cytotoxicity, DU-145; type: cell-based; settings: Homo sapiens, single determinations, Table 2, read-out: Cytotoxicity (GI50) Prostate DU-145
[6] = test system: MCF-7; experiment: NCI-60 cytotoxicity, MCF-7; settings: Homo sapiens, MCF7, read-out: Cytotoxicity (GI50) Breast MCF-7
[7] = test system: HOP-62; experiment: NCI-60 cytotoxicity, HOP-62; settings: Homo sapiens, HOP-62, read-out: Cytotoxicity (GI50) Lung HOP-62
[8] = test system: SF-539; experiment: NCI-60 cytotoxicity, SF-539; settings: Homo sapiens, SF-539, read-out: Cytotoxicity (GI50) CNS SF-539
[9] = test system: UACC-62; experiment: NCI-60 cytotoxicity, UACC-62; settings: Homo sapiens, UACC-62, read-out: Cytotoxicity (GI50) Melanoma UACC-62
[10] = test system: OVCAR-3; experiment: NCI-60 cytotoxicity, OVCAR-3; settings: Homo sapiens, OVCAR-3, read-out: Cytotoxicity (GI50) Ovarian Ovcar-3
[11] = test system: NCI-60 panel of human cancer cell lines; experiment: NCI-60 screen, mean graph midpoint over all cell lines; settings: Homo sapiens, read-out: Cytotoxicity (GI50) MGM
[12] = test system: SN12C; experiment: NCI-60 cytotoxicity, SN12C; settings: Homo sapiens, read-out: Cytotoxicity (GI50) Renal SN12C
[13] = determined in duplicate, Table 2, read-out: Enzyme Inhibitory Activity Tdp1 (IC50)
[14] = read-out: Enzyme Inhibitory Activity Tdp2 (IC50)
[15] = determined in duplicate, Table 2, read-out: Enzyme Inhibitory Activity Tdp2 (IC50)
[16] = semiquantitative scale, in duplicate, Table 1, read-out: Enzyme Inhibitory Activity Tdp1
[17] = semiquantitative scale, in duplicate, Table 1, read-out: Enzyme Inhibitory Activity Tdp2

Compound	Enzyme Inhibitory Activity Top1 ([1]; Table 2)	IC50 [2, 13] [nM]	IC50 [3, 14] [nM]	GI50 [4] [nM]	GI50 [5] [nM]	melting point [°C]	GI50 [6] [nM]	GI50 [7] [nM]	GI50 [8] [nM]	GI50 [9] [nM]	GI50 [10] [nM]	GI50 [11] [nM]	IC50 [3, 15] [nM]	GI50 [12] [nM]	Enzyme Inhibitory Activity Top1 ([1]; Table 1)	Top1 inhibitory activity level [1]	IC50 [2, 16] [nM]	IC50 [3, 17] [nM]
COc1cnc2c(c1)C(=O)c1c-2n(CCCNC2=NCCS2)c(=O)c2cc(Cl)ccc12 [Compound 16c, 3-Chloro-6-(3-((4,5-dihydrothiazol-2-yl)amino)propyl)-9-methoxy-5H-pyrido[3′,2′:4,5]cyclopenta[1,2-c]isoquinoline-5,11(6H)-dione]	++	11900 ± 3900	32900 ± 5700	350	92	295 to 298	36	42	470	95	1300	390						
COc1cnc2c(c1)C(=O)c1c-2n(CCCNC(C)C)c(=O)c2cc(F)ccc12 [Compound 17f, 3-Fluoro-6-(3-(isopropylamino)propyl)-9-methoxy-5H-pyrido[3′,2′:4,5]cyclopenta[1,2-c]isoquinoline-5,11(6H)-dione]	++	> 111000		93	210	285 to 292	31	107	248	271	190	165	> 111000	164				
CNCCCn1c2c(c3ccc(F)cc3c1=O)C(=O)c1cc(OC)cnc1-2 [Compound 17g, 3-Fluoro-9-methoxy-6-(3-(methylamino)propyl)-5H-pyrido[3′,2′:4,5]cyclopenta[1,2-c]isoquinoline-5,11(6H)-dione]	+	> 111000		143	202	259 to 265	34	142	368	608	263	245	108000 ± 3000	211				
COc1cnc2c(c1)C(=O)c1c-2n(CCCNC2=NCCS2)c(=O)c2cc(F)ccc12 [Compound 17c, 6-(3-((4,5-Dihydrothiazol-2-yl)amino)propyl)-3-fluoro-9-methoxy-5H-pyrido[3′,2′:4,5]-cyclopenta-[1,2-c]isoquinoline-5,11(6H)-dione]	++	> 111000	61600 ± 14000	82	144	226 to 250	33	59	305	344	567	269		238				
COc1cnc2c(c1)C(=O)c1c-2n(CCCN2CCCC2)c(=O)c2cc(F)ccc12 [Compound 17i, 3-Fluoro-9-methoxy-6-(3-(pyrrolidin-1-yl)propyl)-5H-pyrido[3′,2′:4,5]cyclopenta[1,2-c]isoquinoline-5,11(6H)-dione]	+++	> 111000		153	211	157 to 162	48	212	360	471	307	288	> 111000	241				
CNCCCn1c2c(c3ccc(Cl)cc3c1=O)C(=O)c1cc(OC)cnc1-2 [Compound 16g, 3-Chloro-9-methoxy-6-(3-(methylamino)propyl)-5H-pyrido[3′,2′:4,5]cyclopenta[1,2-c]isoquinoline-5,11(6H)-dione]		16000 ± 3200		550	331	274 to 275	46	220	730	574	1410	600	> 111000	1180				
COc1cnc2c(c1)C(=O)c1c-2n(CCCNC(C)C)c(=O)c2cc([N+](=O)[O-])ccc12 [Compound 14, 7-Aza-5,6-dihydro-6-[3-(isopropylamino)propyl]-9-methoxy-3-nitro-5,11-dioxo-11H-indeno[1,2-c]isoquinoline]						278 to 280	12	85	51	19	82	58		39	++++	++++	12000 to 37000	37000 to 111000
COc1cnc2c(c1)C(=O)c1c-2n(CCCNCCN2CCOCC2)c(=O)c2cc([N+](=O)[O-])ccc12 [Compound 13, 7-Aza-5,6-dihydro-9-methoxy-6-[3-((2-morpholinoethyl)amino)propyl]-3-nitro-5,11-dioxo-11H-indeno[1,2-c]isoquinoline]						214 to 216	32	150	311	44	315	177		80	+++	+++	12000 to 37000	37000 to 111000
COc1cnc2c(c1)C(=O)c1c-2n(CCCN2CCN(C)CC2)c(=O)c2cc([N+](=O)[O-])ccc12 [Compound 9, 7-Aza-5,6-dihydro-6-[3-(3H-methylpiperazine-1-yl)propyl]-9-methoxy-3-nitro-5,11-dioxo-11H-indeno[1,2-c]isoquinoline]						211 to 213	16	81	191	183	171	562		214	++	++	12000 to 37000	12000 to 37000
